Activity calls are given as the source filed them. The rule behind the calls is not given here.
Key:
SK-BR-3 = assay: Cytotoxicity against human SK-BR-3 cells after 24 hrs by MTT assay relative to NS398; type: functional, cell-based; settings: SK-BR-3, 24 h
[1] = target: T1, Prostaglandin G/H synthase 2 (Homo sapiens) (UniProt P35354); assay: Inhibition of COX2
T1 sequence (whole entry): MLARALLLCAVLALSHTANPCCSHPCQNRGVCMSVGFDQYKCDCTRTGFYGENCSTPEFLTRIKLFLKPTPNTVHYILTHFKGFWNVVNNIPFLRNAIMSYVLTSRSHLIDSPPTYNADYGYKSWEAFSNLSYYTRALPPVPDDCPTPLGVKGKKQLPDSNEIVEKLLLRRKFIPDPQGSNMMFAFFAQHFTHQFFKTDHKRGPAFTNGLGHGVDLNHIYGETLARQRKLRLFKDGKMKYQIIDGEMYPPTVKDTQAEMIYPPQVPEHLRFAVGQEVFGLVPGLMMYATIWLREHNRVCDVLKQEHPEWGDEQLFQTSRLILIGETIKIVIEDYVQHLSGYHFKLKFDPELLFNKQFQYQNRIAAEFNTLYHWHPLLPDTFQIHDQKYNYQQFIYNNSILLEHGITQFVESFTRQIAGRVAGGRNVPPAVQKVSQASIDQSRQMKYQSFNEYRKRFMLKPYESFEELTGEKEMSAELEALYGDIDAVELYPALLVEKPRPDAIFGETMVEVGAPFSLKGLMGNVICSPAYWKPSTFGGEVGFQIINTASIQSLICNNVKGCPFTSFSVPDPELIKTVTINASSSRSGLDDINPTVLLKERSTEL

| Activity [1] | SMILES | IC50 (SK-BR-3) |
| --- | --- | --- |
| inactive | CN(c1ccc([N+](=O)[O-])cc1OCCC1CCCCC1)S(C)(=O)=O | 2540 nM |
| inactive | CCCOc1cc([N+](=O)[O-])ccc1N(C)S(C)(=O)=O | 1240 nM |
| inactive | CCC(CC)Oc1cc([N+](=O)[O-])ccc1N(C)S(C)(=O)=O | 840 nM |
| inactive | CN(c1ccc([N+](=O)[O-])cc1OC1CCCC1)S(C)(=O)=O | 1090 nM |
| inactive | CC(C)Oc1cc([N+](=O)[O-])ccc1N(C)S(C)(=O)=O | 1790 nM |
|  | CS(=O)(=O)Nc1ccc([N+](=O)[O-])cc1OC1CCCCC1 [NS-398] | 720 nM |
| inactive | CN(c1ccc([N+](=O)[O-])cc1OC1CCCCC1)S(C)(=O)=O | 660 nM |

Source: ChEMBL document CHEMBL1146286, “Synthesis of carbon-11 labeled sulfonanilide analogues as new potential PET agents for imaging of aromatase in breast cancer” (Bioorg Med Chem Lett, 2007)
